In US20120083464A1, “NEUROPROTECTIVE PROPERTIES OF 5'-METHYLTHIOADENOSINE” (priority 2009, published 2012):
“Also recorded” adds a separate entry of the source.

Experiments:
[1] = tested on: isolated optic nerve; assay: Simulated ischemia (OGD) in isolated optic nerves, LDH release; parameters: species or system Sprague Dawley rats; settings: 1 h ischemia with iodoacetate + 2 h reperfusion; MTA 100-300 μM
Method: Ischemic damage was induced by substituting […] and adding 1 mM of the glyocolytic blocker iodoacetate (1 mM) for 1 h followed by 2 h of reperfusion in […] aCSF. Optic nerves during ischemia and reperfusion were incubated with vehicle, for controls, and with MTA or glutamate receptor antagonists, and subsequently processed for LDH release assay. The results are the mean±SEM of at least three different experiments performed in duplicate.
Cell viability in oligodendrocyte cultures was assayed after 24 h of exposure to MTA (1 μM to 3 mM) calcein-AM assays respectively followed by fluorimetry measurements (Synergy-HT). Oligodendrocyte protection from excitotoxicity and optic nerve damage after ischemia (1 hour+2 hours reperfusion) were examined using lactate dehydrogenase release assays in the presence or absence of MTA (100-300 μM for 3 hours).

[2] = tested on: caspase 3 activity; assay: NMDA-mediated increase in caspase 3 activity in mixed neuronal-glial culture; format: cell-based, Sprague-Dawley rat; settings: NMDA 300 μM, MTA 250 μM or MK-801 10 μM
Method: Primary cultures of brain cortical neurons and glia were essentially prepared as described previously (Bruno et al., 2001, Eur. J. Neurosci., 13:1469-1478). The fronto-lateral cortical lobes were dissected out of Sprague-Dawley embryonic day 17 foetuses and were mechanically dissociated in Hanks' balanced solution. The cortical lobes were triturated by aspirating 7-10 times using a Pasteur pipette with a flame-narrowed tip. […]
Cortical neurons or mixed cortical neurons and glia were plated on poly-L-lysine-coated 6-well culture plates and after 7 DIV, cells were treated with vehicle or NMDA (300 μM) for different periods of time. […] Extracts were then centrifuged at 5,000×g for 10 min at 4° C., and protein content was determined by using the BCA protein assay according to the manufacturer instructions. Cell extracts (40 μg of protein) were incubated in reaction buffer (25 mM Hepes, 10% sucrose, 0.1% CHAPS, 10 mM DTT) containing 50 μM fluorescence substrate Z-DEVD-AFC at 37° C. for 1 h. Cleavage of the AFC fluorophore was determined in a spectrofluorometer at excitation wavelength of 400 nm and fluorescence was detected at an emission wavelength of 505 nm. Caspase 3 activity was expressed as units of fluorescence/mg of protein/h (Posadas et al., 2009, Pharm. Res., In press).

## N[C@H](CCCP(=O)(O)O)C(=O)O [APV, (2R)-amino-5-phosphonovaleric acid]
[1]
  OGD/ischemia-induced damage in isolated optic nerve (LDH release): reduced; also recorded: attenuated

## N#Cc1cc2c(cc1[N+](=O)[O-])=NC(=O)C(=O)N=2 [CNQX, 6-cyano-7-nitro-quinoxaline-2,3-dione]
[1]
  OGD/ischemia-induced damage in isolated optic nerve (LDH release): reduced; also recorded: attenuated

## C[C@]12N[C@H](Cc3ccccc31)c1ccccc12 [MK-801, reference compound]
[2]
  protection against NMDA-induced caspase 3 activity: neuroprotective action
